{"source": "patent EP0584256B1", "about": "“COMPOUNDS AND PHARMACEUTICAL COMPOSITIONS FOR DETECTING AND LOCALIZING TISSUES HAVING NEUROKININE 1 RECEPTORS” (MALLINCKRODT MEDICAL, INC., priority 1991, dated 1999)", "key": {"SP-receptors [1]": {"tested_on": "SP-receptors", "assay": "Displacement of / binding of [125I]BH-SP, human glioma membranes", "conditions": "Figure 1", "method": "(§1) Binding studies in vitro are carried out in a standardized system by studying the displacement of ^125I-Bolton Hunter substance P {[^125I]BH-SP} by the above-synthetized labelled peptides."}, "SP-receptors [2]": {"tested_on": "SP-receptors", "assay": "Displacement of / binding of [125I]BH-SP, rat brain cortex membranes", "conditions": "membranes of the cortex of rat brains; Figure 1", "method": "as §1"}, "[3]": {"assay_type": "in vitro ADME, rat", "description": "A liver perfusion model is used as described by Docter et al. in Endocrinology 1990, 126, 451-459. It is a generally accepted fact in this art, that handling of bio-active substances by the isolated perfused rat liver according to this model has a very good predictable value for the appearance of metabolites of the used substance in the circulation of human beings. In short, in this model isolated livers are perfused in a recirculating system with Krebs-Ringer medium supplemented with 1% bovine serum albumin and 10 mM glucose. After 0.5 hr preperfusion, experiments are started by addition of the labelled substance P (5 µCi) to the medium. At regular time points medium samples are taken. Medium samples are analyzed by column chromatography, using Seppak^(R) C-18 columns.\nThe average results are presented in Figures 4-6, showing the disappearance of the total radioactivity (\"tot. act.\") and of the peptide-bound radioactivity (\"protein\") with concomitant appearance of non-peptide bound radioactivity in the circulating medium as a degradation product.\nFigures 7-9 show the excretion of the tested labelled peptides into the bile."}, "[4]": {"tested_on": "human meningioma membranes", "assay": "Binding of [125I]BH-SP to human meningioma membranes", "conditions": "Figure 1", "method": "as §1"}}}
{"substance": "[^125I]BH-SP: ^125I-Bolton Hunter substance P, known radioligand from in vitro binding studies", "values": [{"measurement": "specific binding to membranes", "setting": "SP-receptors [1]", "result": "specifically binds"}, {"measurement": "specific binding to membranes", "setting": "SP-receptors [2]", "result": "specifically binds"}, {"measurement": "liver metabolic clearance", "setting": "[3]", "result": "relatively fast"}, {"measurement": "specific binding to membranes", "setting": "[4]", "result": "not"}]}
